# Results taken from patent US10155802B2, “Locally-active anticoagulants and anti-inflammatory agents” (priority 2011, dated 2018).
# “Also recorded” adds a separate entry of the source.
# Columns and labels:
# [1] = test system: FeCl3-induced venous thrombosis (vena cava); assay: FeCl3-induced venous model of thrombosis in rats (thrombus weight); type: in vivo; conditions: rat, single-bolus injection via tail vein
# Method: Male Sprague-Dawley rats (250-310 g; Charles River Laboratories, St-Constant, QC, Canada) were acclimated for at least 3 days prior to the start of the study. Animals were housed in microisolator cages and were kept on a 12-hr light/dark cycle with constant temperature and humidity. Food and water were provided ad libitum. Various anti-thrombotic agents and peptides of this invention were dissolved in saline (0.9% sodium chloride) prior to use.
# The FeCl3-induced venous model of thrombosis in rats was generated as described by Wang and Xu (Wang 2005) with some modifications (Couture 2011). Briefly, rats were anesthetized with a 2.5% isoflurane/oxygen mixture and placed on a heat source (35-37° C.). The vena cava was then exposed via a midline incision and the region between the renal and iliolumbar veins was isolated. […]
# Protein content of the thrombus was also measured according to protocol by Wang (Wang 2005). […] Contents of amino acids and small peptides were measured at OD280 with digestion buffer used as a blank.
# Statistical analysis was conducted using GraphPad™ Prism (GraphPad Software Inc., San Diego Calif., USA). Data were analyzed using one-way ANOVA with post-hoc Bonferroni correction for multiple comparisons. The relationship between thrombus weight and thrombus volume was determined by linear regression. […]
# [2] = biological target: thrombin (Homo sapiens, UniProt P00734); assay: Fibrinogen clotting assay (concentration needed to double the clotting time = IC50); type: biochemical; conditions: for IC50: IC50 (anti-clotting)
# Method: The same enzyme kinetic assays were used to determine the inhibitory activities of MH2 and two MH2-derived peptides, MH2-allGS and MH2-GS (Table 4). Clotting assays were carried out to determine the inhibitory activities of the rest of the MH2 peptides by use of the protocols described previously (DiMaio 1990; Taka 2000; Su 2004). The assay employs bovine plasma fibrinogen dissolved at 0.1% in 50 mM Tris-Cl, 100 mM NaCl, 0.1% PEG-8000 at pH 7.6 (i.e. the clotting buffer). In addition to the use of optical densities or ODs (Gill 1989), concentrations of the peptide stock solutions were ranked (and corrected when necessary) by use of quantitative proton NMR spectroscopy (Cavaluzzi 2002). Each assay mixture contained a certain concentration of the peptide, and the reaction was started by the addition of human thrombin to a final concentration of approximately 0.5 nM. Optical absorbance of the assay mixtures was measured at 420 nm using the Spectramax™ plate reader. The onset clotting time was determined as an intersection of the baseline and the tangent line at point of inflection of the clotting curve. The concentration of an MH2 peptide needed to double the clotting time was defined as IC50 (DiMaio 1990) as illustrated in FIG. 4 and summarized in Table 4. The correlation between IC50 values and linker unfolding is similar to that for the BTI series of inhibitors (Table 3). […] (Table 3).
# [3] = test system: human coagulation proteome; assay: Synthetic coagulation proteome assay (thrombin generation); type: biochemical
# Method: This assay is carried out using an established protocol as described previously (Brummel-Ziedens 2008). Briefly, a pro-cofactor solution containing re-lipidated tissue factor (10 pM; molar ratio PCPS:TF=5000) was incubated with 4 μM PCPS in HBS (20 mM HEPES and 150 mM NaCl at pH 7.4) and 2 mM CaCl2 for 8 min at 37° C. Factor V (40 nM) and Factor VIII (1.4 nM) were then added to the mixture prior to initiation of the reaction to activate the protease zymogens in the blood coagulation cascade. The activation reaction was initiated by addition of the pro-cofactor solution to a zymogen solution containing prothrombin (2.8 μM), Factor VII (20 nM), Factor Vila (0.2 nM), FX (340 nM), Factor IX (180 nM), Factor XI (60 nM), TFPI (5 nM), antithrombin III (6.8 μM) […]
# At selected time points after initiation of the reaction, 10 μL aliquots were withdrawn from the reaction mixture and quenched in 20 mM EDTA in HBS (pH 7.4) containing 0.2 mM Spectrozyme™ TH and assayed immediately for the proteolytic activity of thrombin. The hydrolysis of Spectrozyme™ TH was monitored by the change in absorbance at 405 nm using a SpectraMax™ plate reader (Molecular Devices Corp., Menlo Park, Calif., USA). Concentration of thrombin generated by the reaction was calculated from a standard curve prepared by serial dilutions of known concentrations of α-thrombin using the fibrinogen clotting assay (DiMaio 1990). Fibrinogen solution was freshly prepared by dissolving about 0.5% (w/v) fibrinogen in 50 mM Tris-HCl, 100 mM NaCl, 0.1% PEG-8000, pH 7.6 and filtering the resulting solution through a hydrophilic membrane of 0.45 μm polyvinylidene fluoride (PVDF) with low protein binding. The concentration of fibrinogen after filtration was determined by using the extinction coefficient of 15.0 for 1% fibrinogen at 280 nm. […] Thrombin-induced clotting of fibrinogen was followed at 25° C. by measuring the optical absorbance at 420 nm. The clotting time was obtained from extrapolation of the slope at the point of inflection to the zero absorbance baseline. […]
smiles,measurement,setting,value
CC[C@H](C)[C@H](N)C(=O)N[C@@H](CCCNC(=N)N)C(=O)N[C@@H](Cc1ccccc1)C(=O)N[C@H](C(=O)N[C@@H](CC(=O)O)C(=O)NCC(=O)N[C@@H](CCC(=O)O)C(=O)N[C@@H](Cc1c[nH]c2ccccc12)C(=O)N[C@H](C(=O)N[C@@H](Cc1c[nH]c2ccccc12)C(=O)N[C@@H](CC(=O)O)C(=O)N[C@@H](CC(=O)O)C(=O)N[C@@H](C)C(=O)N[C@H](C(=O)N[C@@H](CCCCN)C(=O)N[C@H](C(=O)N[C@@H](Cc1c[nH]c2ccccc12)C(=O)N[C@H](C(=O)N[C@@H](Cc1c[nH]c2ccccc12)C(=O)N[C@H](C(=O)N[C@@H](CCC(=O)O)C(=O)NCC(=O)N[C@@H](CC(=O)O)C(=O)N[C@@H](Cc1ccccc1)C(=O)N[C@@H](CCC(=O)O)C(=O)N[C@@H](CCC(=O)O)C(=O)N[C@H](C(=O)N1CCC[C@H]1C(=O)N[C@@H](CCC(=O)O)C(=O)N[C@@H](CCC(=O)O)C(=O)N[C@@H](Cc1ccc(O)cc1)C(=O)N[C@@H](CC(C)C)C(=O)N[C@@H](CCC(N)=O)C(=O)O)[C@@H](C)CC)[C@@H](C)O)[C@@H](C)O)[C@@H](C)O)[C@@H](C)O)[C@@H](C)O)[C@@H](C)O [MH2-wZIP4],"reduction of thrombus weight, venous model",[1],"particularly efficacious in reducing the weight of local thrombus formation; also recorded: more effective than other anti-thrombotic agents (heparin, argatroban and bivalirudin)"
same,Ki,[2],~150 nM
same,IC50,[2]; T = 25° C.,~250 nM
same,IC50,[2]; T = 37° C.,154 nM
same,delay of thrombin burst / onset of thrombin generation,[3]; 37° C.,very little delay in the onset of thrombin generation
same,delay of onset of thrombin generation with increase of bulk temperature,[3]; 42° C. versus 37° C.,delaying effect is increased somewhat
